Key:
NPC1L1 = NPC1L1 (Rattus norvegicus, UniProt Q6T3U3); test: NPC1L1 binding assay (BODIPY-labeled glucuronidated ezetimibe competition), rat
human NPC1L1 = target: T1, human NPC1L1 (Homo sapiens, UniProt Q9UHC9); test: NPC1L1 binding assay (BODIPY-labeled glucuronidated ezetimibe competition), human; conditions: HEK-293 cells expressing human NPC1L1, 4 hours at 37° C.
T1 construct: expressed in transfected cells; host or cells: HEK-293 (geneticin selection)
T1 sequence (Q9UHC9 22-1359): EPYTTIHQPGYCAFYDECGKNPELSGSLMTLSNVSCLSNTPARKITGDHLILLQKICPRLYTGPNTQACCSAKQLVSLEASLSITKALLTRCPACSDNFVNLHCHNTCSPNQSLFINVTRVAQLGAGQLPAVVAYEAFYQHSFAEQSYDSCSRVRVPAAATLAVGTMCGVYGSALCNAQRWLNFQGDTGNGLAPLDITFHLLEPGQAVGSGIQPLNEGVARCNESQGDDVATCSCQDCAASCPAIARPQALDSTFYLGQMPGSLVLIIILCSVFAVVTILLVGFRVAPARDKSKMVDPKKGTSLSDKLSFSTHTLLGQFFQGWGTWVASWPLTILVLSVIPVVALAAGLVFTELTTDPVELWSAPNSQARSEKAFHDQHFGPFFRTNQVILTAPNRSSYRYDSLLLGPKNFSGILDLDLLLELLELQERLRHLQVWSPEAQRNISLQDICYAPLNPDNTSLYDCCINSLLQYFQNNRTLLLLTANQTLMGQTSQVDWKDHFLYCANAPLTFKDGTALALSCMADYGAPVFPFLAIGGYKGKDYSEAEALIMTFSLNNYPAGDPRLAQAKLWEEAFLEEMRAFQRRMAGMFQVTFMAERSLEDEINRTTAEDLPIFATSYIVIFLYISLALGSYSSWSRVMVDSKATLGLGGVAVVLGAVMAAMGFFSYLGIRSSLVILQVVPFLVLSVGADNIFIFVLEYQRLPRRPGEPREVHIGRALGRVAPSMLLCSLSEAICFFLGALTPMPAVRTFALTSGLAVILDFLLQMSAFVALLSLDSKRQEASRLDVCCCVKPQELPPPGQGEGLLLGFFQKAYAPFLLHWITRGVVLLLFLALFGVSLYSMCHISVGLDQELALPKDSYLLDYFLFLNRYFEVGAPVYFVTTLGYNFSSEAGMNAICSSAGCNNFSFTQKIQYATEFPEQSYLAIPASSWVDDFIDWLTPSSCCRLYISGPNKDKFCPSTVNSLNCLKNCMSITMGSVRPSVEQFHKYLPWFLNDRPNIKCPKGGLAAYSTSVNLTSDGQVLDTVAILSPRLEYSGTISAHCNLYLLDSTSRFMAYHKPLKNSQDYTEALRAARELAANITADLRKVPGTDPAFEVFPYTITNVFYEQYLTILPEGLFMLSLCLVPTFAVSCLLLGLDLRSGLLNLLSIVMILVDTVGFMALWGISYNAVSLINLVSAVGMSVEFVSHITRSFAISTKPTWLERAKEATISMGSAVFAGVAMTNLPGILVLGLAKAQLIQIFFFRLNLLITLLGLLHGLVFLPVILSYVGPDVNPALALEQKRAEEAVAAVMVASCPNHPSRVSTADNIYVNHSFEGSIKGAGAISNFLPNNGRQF
Procedure: HEK-293 cells expressing human NPC1L1 were plated into 384-well black/clear plates (BD Biosciences, Bedford Mass.) for binding experiments the following day. Cell growth media (DMEM, 10% fetal calf serum, 1 mg/mL geneticin, 100 Units/mL penicillin) was aspirated. Cell growth media ([…]) containing 250 nM BODIPY-labeled glucuronidated ezetimibe was added to each well. Cell growth media ([…]) containing the indicated concentration of compound was then added to the wells. Unlabeled glucuronidated ezetimibe ([…]) was used to determine nonspecific binding. The binding reaction was allowed to proceed for 4 hours at 37° C. Subsequently the cell growth media was aspirated and the cells washed once with PBS. The remaining fluorescent labeled glucuronidated ezetimibe bound to the cells was quantified using a FlexStation plate reader (Molecular Devices, Sunnyvale Calif.) to measure fluorescence intensity. Ki values were determined from competition binding curves (n=4 for each point) using Prism and Activity Base software.

rat VR1 = target: T2, rat VR1 (Rattus norvegicus, UniProt O35433); test: TRPV1 screening assay (FLIPR), rat VR1 % activation at single concentration; assay type: cell-based
T2 construct: expressed in transfected cells; host or cells: HEK293-TetOFF
T2 sequence (O35433 whole entry): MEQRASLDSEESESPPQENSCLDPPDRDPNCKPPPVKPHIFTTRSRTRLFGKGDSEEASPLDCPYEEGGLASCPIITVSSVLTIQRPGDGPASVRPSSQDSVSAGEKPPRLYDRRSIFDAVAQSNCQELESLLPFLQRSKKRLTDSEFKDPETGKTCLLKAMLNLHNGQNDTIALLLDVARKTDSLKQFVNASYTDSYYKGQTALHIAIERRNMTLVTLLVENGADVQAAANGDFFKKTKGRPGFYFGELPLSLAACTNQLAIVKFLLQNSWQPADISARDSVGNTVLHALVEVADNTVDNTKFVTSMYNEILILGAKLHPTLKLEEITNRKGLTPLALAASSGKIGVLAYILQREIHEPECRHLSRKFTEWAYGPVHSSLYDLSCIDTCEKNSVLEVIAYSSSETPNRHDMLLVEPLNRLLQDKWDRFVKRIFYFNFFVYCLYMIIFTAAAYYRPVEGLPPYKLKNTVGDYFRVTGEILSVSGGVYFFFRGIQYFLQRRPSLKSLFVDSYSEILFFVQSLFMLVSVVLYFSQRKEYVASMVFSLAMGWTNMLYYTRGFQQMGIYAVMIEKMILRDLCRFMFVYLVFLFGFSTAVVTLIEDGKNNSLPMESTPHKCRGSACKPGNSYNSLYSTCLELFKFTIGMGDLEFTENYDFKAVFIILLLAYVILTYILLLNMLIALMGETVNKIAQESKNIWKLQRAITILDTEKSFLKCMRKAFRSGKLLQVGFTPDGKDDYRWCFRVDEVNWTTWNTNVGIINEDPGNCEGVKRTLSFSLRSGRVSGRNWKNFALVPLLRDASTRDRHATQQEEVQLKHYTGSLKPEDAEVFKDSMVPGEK
Text: • 1) Cell line: HEK293-Tet^OFF-TRPV1 • 2) Media: MEM (Invitrogen) • 3) 10% Tet-FBS (Clontech #8630-1) • 4) Fungizone (Gibe #15290-018 (100X)) • 5) Penn/Strep (Gibco #15140-122 (100X)) • 6) Geneticin (Gibco #10131-027 (100X)) • 7) Hygromycin (Clontech #8057-1) • 8) Doxycycline (Clontech #8634-1) • 9) Trypsin/EDTA (Gibco #25200-056) • 10) 100 mm cell culture plates (Falcon #3003) • 11) 96-well poly-D-lysine plates (Fisher #08-774-256) • 12) Hank's Balanced Salt Solution (HBSS) (GIBCO #14025-092) • 13) HEPES Buffer (GIBCO #15630-080) • 14) 30% BSA (Research Organics #1334A) • 15) Probenecid (Sigma P-8761) • 16) Fluo-4, AM (50 μg) (Molecular Probes F-23917) • 17) Pluronic F-127 20% (Molecular Probes P-3000). • 18) capsazepine (Sigma C-191) • 19) capsaicin (Sigma M-2028) • 20) compound plates (NUNC #442587) • 21) black pipet tips 96-well FLIPR (Robbins Scientific 1043-24-0) • 22) Additional reagents available from Fisher: methanol, DMSO, NaOH Reagent Preparation: 1) Cells: HEK293-Tet^OFF-TRPV11
• and Doxycycline 2.5 μg/mL final (from a 1000× stock in PBS) • Cells must be fed and/or split every 2-3 days (to maintain transcriptional repression with Doxycycline). • Must be split no more than 1:5 (50-75% confluency) to maintain growth and viability. • Grown on regular tissue culture plates (e.g Falcon 3003-100 mm) • Split cells via Trypsin/EDTA: incubate with trypsin at room temperature no longer than 5 minutes (HEK293 cells have a tendency to ball up if over trypsinized). • Two days prior to assay, the cells are split into 96-well plates in cell media in the absence of doxycycline at a concentration of 40,000 cells/well in a volume of 200 μL. 2) FLIPR buffer is prepared fresh:
For assay: • a) Dilute stock by adding 0.8 μL into 1 mL of MeOH (final=80 uM). • b) Add 50 μL of diluted stock to 20 mL of FLIPR buffer (final=0.2 uM) • c) Agonist solution is added 150 μL/well to 96-well plate. • d) Final agonist concentration on cells will be 50 nM. (˜EC80) 6) Compound Plate preparation: • a) Compound plate is filled with 150 μL/well of FLIPR buffer • b) 3 μL of compound mixtures (1 mg/mL) is added to each well (represents a 3× solution and final DMSO=0.67%) Assay Procedure: • 1) Media is removed from cells grown in 96-well dishes. • 2) 100 μL of Fluo-4 containing FLIPR buffer in pipetted into each well. • 3) Plates are incubated for 30-60 minutes at 37° C. in 5% CO2 incubator. • 4) Plates are then washed three times with 100 μL of FLIPR buffer. • 5) 100 μL of FLIPR buffer is left in each well and plate is incubated at 37° C. for at least 20 minutes. • 6) Signal of dye-labeled plate is initially determined using laser at 0.300 W with an exposure time of 0.4 seconds. Laser is adjusted upwards for an average signal≧10,000/well and less than 10% variability. 7) Compound addition conditions are as follows: • FLIPR setup (dual sequence parameters): • Sequence 1: • First interval 1 sec/60 counts • Second interval 6 sec/50 counts • Fluid addition=50 μL • Pipettor height 110 μL • Dispense Speed=30 μL/sec • Sequence 2: • Second interval 1 sec/60 counts • Second interval 6 sec/40 counts • Fluid addition=50 μL • Pipettor height=140 μL • Dispense Speed=50 μL/sec Data Analysis: • 1) Data from both additions is reported as Max-Min for each well

Row | Compound | Ki (NPC1L1) | Ki (human NPC1L1) | rat VR1 % activation @ 3.3 ug/ml compound (rat VR1)
1 | O=C(Nc1c(Cl)cccc1Cl)N1CCC2(CC1)C(=O)N(c1ccccc1)C2c1ccccc1 (stereo not drawn) | 1.52 µM | 2.12 µM | 
2 | O=C(Nc1c(Cl)cccc1Cl)N1CCC2(CC1)C(=O)N(c1ccc(F)cc1)C2c1ccc(Cl)cc1 (stereo not drawn) | 4.84 µM | 6.41 µM | 
3 | Cc1cccc(Cl)c1NC(=O)N1CCC2(CC1)C(=O)N(c1ccc(F)cc1)C2c1ccc(Cl)cc1 (stereo not drawn) | 5.95 µM | 10.1 µM | 
4 | O=C(Nc1cccc(C(F)(F)F)c1)N1CCC2(CC1)C(=O)N(c1ccc(F)c(Cl)c1)C2c1ccccn1 (stereo not drawn) [drawing 660] |  |  | 98%
5 | O=C(Nc1c(Cl)cccc1Cl)N1CCC2(CC1)C(=O)N(c1ccccc1)C2c1ccccc1 (single isomer, unassigned) [drawing 666] | 0.782 µM | 1.57 µM | 
6 | O=C(Nc1c(Cl)cccc1Cl)N1CCC2(CC1)C(=O)N(c1ccccc1)C2c1ccccc1 (single isomer, unassigned) [drawing 667] | 18 µM | 17.6 µM | 
7 | O=C(Nc1cc(F)cc(F)c1)N1CCC2(CC1)C(=O)N(c1cccc(Cl)c1)C2c1cccnc1 (stereo not drawn) [drawing 664] |  |  | 75%

From patent publication US20080076751A1, “Azetidinone Derivatives and Methods of Use Thereof” (priority 2006, published 2008)
